Laboratory results: ChEMBL document CHEMBL1143216, “Synthesis of 1,2,3-triazole-linked pyrrolobenzodiazepine conjugates employing 'click' chemistry: DNA-binding affinity and anticancer activity” (2008)

How the values were obtained:
A2780 = test: Growth inhibition of human A2780 cells by SRB method; type: functional
COLO 205 = test: Growth inhibition of human Colo205 cells by SRB method; type: functional
A549 = test: Growth inhibition of human A549 cells by SRB method; type: functional
[1] = Growth inhibition of human DWD cells by SRB method; type: functional
DNA = test: Binding affinity to calf thymus DNA assessed as helix melting temperature at 20 uM after 18 hrs; type: nucleic-acid assay; conditions: Bos taurus
ZR-75-1 = test: Growth inhibition of human Zr-75-1 cells by SRB method; type: functional
MCF7 = test: Growth inhibition of human MCF7 cells by SRB method; type: functional
[2] = Growth inhibition of human Gurav cells by SRB method; type: functional
KB = test: Growth inhibition of human KB cells by SRB method; type: functional
PC-3 = test: Growth inhibition of human PC3 cells by SRB method; type: functional
SiHa = test: Growth inhibition of human SiHa cells by SRB method; type: functional

GI50 (A2780) [µM] | GI50 (COLO 205) [µM] | GI50 (A549) [µM] | ΔTm (DNA) [°C] | GI50 (MCF7) [µM] | GI50 (KB) [µM] | GI50 (PC-3) [µM] | SMILES | GI50 [1] [µM] | GI50 (ZR-75-1) [µM] | GI50 [2] [µM] | GI50 (SiHa) [µM]
26 | 2.17 | 6.12 | 3.6 |  | 7.19 | 29.1 | COC(=O)c1nnn(CCCCCOc2cc3c(cc2OC)C(=O)N2CCC[C@H]2C=N3)c1C(=O)OC | 26 | 1.93 | 26.8 | 2.15
0.914 | 1.09 |  | 2.8 | 2.17 | 26.4 | 2.23 | COC(=O)c1nnn([C@H]2C[C@H]3C=Nc4cc(OC)c(OC)cc4C(=O)N3C2)c1C(=O)OC | 2.26 | 2.47 | 2.39 | 0.21
 |  |  | 2.3 |  |  |  | COC(=O)c1nnn([C@H]2C[C@H]3C=Nc4ccccc4C(=O)N3C2)c1C(=O)OC |  |  |  | 
2.48 | 2.09 | 24.7 | 3.1 |  | 26.6 | 28.7 | COC(=O)c1nnn(CCCOc2cc3c(cc2OC)C(=O)N2CCC[C@H]2C=N3)c1C(=O)OC | 25.5 | 2.53 | 25.1 | 2.12
 |  |  | 0 |  |  |  | COC(=O)c1nnn(CCCCOc2cc3c(cc2OC)C(=O)N2C[C@@H](n4nnc(C(=O)OC)c4C(=O)OC)C[C@H]2C=N3)c1C(=O)OC |  |  |  | 
25.8 | 27.9 |  | 2.2 | 27.6 |  |  | COC(=O)c1nnn([C@H]2C[C@H]3C=Nc4cc(OCc5ccccc5)c(OC)cc4C(=O)N3C2)c1C(=O)OC | 29.7 |  |  | 2.04
0.19 | 2.01 | 7.12 | 4.5 | 2.12 | 1.05 |  | COC(=O)c1nnn(CCCOc2cc3c(cc2OC)C(=O)N2C[C@@H](n4nnc(C(=O)OC)c4C(=O)OC)C[C@H]2C=N3)c1C(=O)OC |  |  | 2.42 | 2.17
0.13 | 0.21 | 28.7 | 0 | 30.5 | 2.36 | 25.4 | COC(=O)c1nnn(CCCCOc2cc3c(cc2OC)C(=O)N2CCC[C@H]2C=N3)c1C(=O)OC | 2.24 | 2.12 | 2.39 | 2.04
0.16 | 1.92 | 2.41 | 5.9 | 2.05 | 1.92 | 0.17 | COC(=O)c1nnn(CCCCCOc2cc3c(cc2OC)C(=O)N2C[C@@H](n4nnc(C(=O)OC)c4C(=O)OC)C[C@H]2C=N3)c1C(=O)OC | 0.15 | 5.51 | 1.82 | 0.12

SMILES | GI50 (A2780) [µM] | GI50 (COLO 205) [µM] | GI50 (A549) [µM] | ΔTm (DNA) [°C] | GI50 (MCF7) [µM] | GI50 (KB) [µM] | GI50 (PC-3) [µM] | GI50 [1] [µM] | GI50 (ZR-75-1) [µM] | GI50 [2] [µM] | GI50 (SiHa) [µM]
COc1cc2c(cc1O)N=C[C@@H]1CCCN1C2=O | 0.14 | 0.11 | 0.16 | 0.7 | 0.17 | 0.17 | 0.2 | 1.49 | 2.37 | 0.16 | 0.17
COc1cccc2c1C(=O)c1c(O)c3c(c(O)c1C2=O)C[C@@](O)(C(=O)CO)C[C@@H]3O[C@H]1C[C@H](N)[C@H](O)[C@H](C)O1 [DOXORUBICIN] | 0.17 | 0.15 | 7.25 |  | 0.18 | 0.17 | 1.81 | 0.1 | 1.79 | 0.17 | 0.18
